One series concerns complement activation. To be noted: relative to compstatin amidated at the C-terminus; based on published data; cited from earlier work.
The test system of series [1] is alternative complement pathway. Description: Serum alternative complement pathway activity (AH50) in non-human primates. The class given is in vivo, cynomolgus monkeys. The method, then:
(§1) Naive male cynomolgus monkeys (n=3 in each group) were subcutaneously (SC) administered a single dose of either 3 mg/kg, 10 mg/kg, or 30 mg/kg siRNA 58, or vehicle (phosphate buffered saline) on day 1.
(§2) Serum samples were scheduled to be collected on days −5, −1, 3, 8, 15, 22, 29, 40, 57, 67, 82, 97, 112, 127, 142, 157, 172 and 184 (where negative values correspond to days before injection with siRNA 58 or vehicle). The level of C3 protein in serum was measured using an ELISA assay. Additionally, serum samples were also analyzed for alternative complement pathway activity (AH50). Values at day −1 value were used as the baseline.

For another series, the system named is C3 mRNA. Briefly: Liver biopsy C3 mRNA (quantitative PCR) in non-human primates after single SC dose. The series is classed as in vivo, cynomolgus monkeys. To be noted: for reduction of liver C3 mRNA vs vehicle control: by day 15. How it is done: as §1
Liver needle biopsies were performed on days 15, 46 and 79. The level of C3 mRNA in the samples was measured using a quantitative PCR assay. C3 mRNA level was normalized to the level of ActB mRNA in these experiments.

For the next series, the system named is C3 protein. Briefly: Serum C3 protein (ELISA) in non-human primates after single SC dose. The class given is in vivo, cynomolgus monkeys. As to conditions: for reduction of serum C3 protein vs baseline: by day 29. The method, then:
as §1, §2
For orientation: In an ELISA, binding on a coated surface is turned into a signal by an enzyme label.

[2] abbreviates: single SC dose 3, 10 or 30 mg/kg.

Consider 13 substances from patent publication US20230095695A1, “RNAS FOR COMPLEMENT INHIBITION” (Apellis Pharmaceuticals, Inc., priority 2020, published 2023).

Oligonucleotides are written 5' to 3', each unit as a sugar letter and its base; * is a phosphorothioate linkage, no mark a phosphodiester; rarer units and linkages stand in square brackets, end groups in braces. Plain capitals give the bases only. Non-standard residues stand in square brackets, D forms with d. {GalNAc-NHC6} = GalNAc ligand attached through an NHC6 linker; Trp(5-F) = N[C@@H](Cc1c[nH]c2ccc(F)cc12)C(=O)O; Trp(5-Me) = Cc1ccc2[nH]cc(C[C@H](N)C(=O)O)c2c1; Trp(6-F) = N[C@@H](Cc1c[nH]c2cc(F)ccc12)C(=O)O; Bpa = N[C@@H](Cc1ccc(C(=O)c2ccccc2)cc1)C(=O)O; 2Nal = N[C@@H](Cc1ccc2ccccc2c1)C(=O)O; Dht = not defined here; m = 2'-O-methyl; f = 2'-fluoro

As for “Ac-ICV(2-Nal)QDWGAHRCT-CONH2 (Ac-ICV[2Nal]QDWGAHRCT-NH2; not fully specified (bridges); printed as Ac-ICV(2-Nal)QDWGAHRCT-CONH2; cysteine pairing not given here) [Ac-V4(2-Nal)/H9A]”, the Activity over compstatin in the series with complement activation is listed as 99× more.
In the case of “Ac-ICV(2-Nal)QDWGAHRCT-COOH (Ac-ICV[2Nal]QDWGAHRCT-OH; not fully specified (bridges); printed as Ac-ICV(2-Nal)QDWGAHRCT-COOH; cysteine pairing not given here) [AcV4(2-Nal)/H9A-OH]”, in the series on complement activation, the Activity over compstatin is on record as 38× more.
For “Ac-ICV(5-methyl-W)QDWGAHRCT-CONH2 (Ac-ICV[Trp(5-Me)]QDWGAHRCT-NH2; not fully specified (bridges); printed as Ac-ICV(5-methyl-W)QDWGAHRCT-CONH2; cysteine pairing not given here) [Ac-V4(5-MeW)/H9A]”, the Activity over compstatin with complement activation is on record as 67× more.
On to “Ac-ICV(5fW)QDWGAHRCT-CONH2 (Ac-ICV[Trp(5-F)]QDWGAHRCT-NH2; not fully specified (bridges); printed as Ac-ICV(5fW)QDWGAHRCT-CONH2; cysteine pairing not given here) [Ac-V4(5fW)/H9A]”, for which the Activity over compstatin in the series on complement activation is listed as 31× more.
Turning to “Ac-ICV(Bpa)QDWGAHRCT-CONH2 (Ac-ICV[Bpa]QDWGAHRCT-NH2; not fully specified (bridges); printed as Ac-ICV(Bpa)QDWGAHRCT-CONH2; cysteine pairing not given here) [Ac-V4(Bpa)/H9A]”, the Activity over compstatin in the series with complement activation is 86× more.
As for “Ac-ICV(Bpa)QDWGAHRCT-COOH (Ac-ICV[Bpa]QDWGAHRCT-OH; not fully specified (bridges); printed as Ac-ICV(Bpa)QDWGAHRCT-COOH; cysteine pairing not given here) [Ac-V4(Bpa)/H9A-OH]”, the Activity over compstatin in the series on complement activation is given as 49× more.
Take “Ac-ICV(Dht)QDWGAHRCT-COOH (Ac-ICV[Dht]QDWGAHRCT-OH; not fully specified (bridges); printed as Ac-ICV(Dht)QDWGAHRCT-COOH; cysteine pairing not given here; reading uncertain) [Ac-V4Dht/H9A-OH]”: the Activity over compstatin in the series on complement activation is given as 5× more.
As for Ac-ICVVQDWGHHRCT-CONH2 [Ac-compstatin], the Activity over compstatin in the series with complement activation is given as 3× more.
As to “Ac-ICVWQDWGAHRCT-CONH2 (Ac-ICVWQDWGAHRCT-NH2; not fully specified (bridges); printed as Ac-ICVWQDWGAHRCT-CONH2; cysteine pairing not given here) [AC-V4W/H9A]”, the Activity over compstatin in the series on complement activation was 45× more.
In the case of “Ac-ICVWQDWGAHRCdT-COOH [AC-V4W/H9A/T13dT-OH]”, the Activity over compstatin in the series on complement activation was 55× more.
For Ac-ICVYQDWGAHRCT-CONH2 [AC-V4Y/H9A], in the series on complement activation, the Activity over compstatin is 14× more.
Turning to “H-GICV(6fW)QD(6fW)GAHRCTN-COOH (H-GICV[Trp(6-F)]QD[Trp(6-F)]GAHRCTN-OH; not fully specified (bridges); cysteine pairing not given here) [+GA/4(6fW)/W7(6fW)H9A+N-OH]”, the Activity over compstatin in the series with complement activation is 126× more.
Take “siRNA 58: siRNA 53 further modified; sense SEQ ID NO: 325 / antisense SEQ ID NO: 275; GalNAc conjugated via NHC6 linker at 5′ end of sense strand (sense {GalNAc-NHC6}-mC*mC*fAmAmCmUfAfCfAmUmGfAmAmCmCmUfA*mC*mA; antisense mU*fG*mUmAmGmGmUmUmCmAmUmGmUfAmGmUmUmGmG*mC*mU) [siRNA 53 further modified; GalNAc conjugated via NHC6 linker at 5′ end of sense strand]”: the “reduction of alternative complement pathway activity (AH50) vs baseline” value amounted to 65% in series [1] (single SC dose 3 mg/kg, by day 29); 68% in series [1] (single SC dose 3 mg/kg, day 67); 82% in series [1] (single SC dose 10 mg/kg, by day 29); 91% in series [1] (single SC dose 10 mg/kg, day 67); 92% in series [1] (single SC dose 30 mg/kg, by day 29); 98% in series [1] (single SC dose 30 mg/kg, day 67). The results for the “reduction of liver C3 mRNA vs vehicle control” value in the series with C3 mRNA (single SC dose 3 mg/kg), in the series with C3 mRNA (single SC dose 10 mg/kg) and with C3 mRNA (single SC dose 30 mg/kg) were 89%, 97% and 99%, respectively. Moreover, the “duration of liver C3 mRNA reduction” value in the series with C3 mRNA (setting [2]) is recorded as “sustained at day 46”. Besides, the “reduction of serum C3 protein vs baseline” value in the series on C3 protein (single SC dose 3 mg/kg) is reported as 77%; with C3 protein (single SC dose 10 mg/kg) it was 85%; in the series with C3 protein (single SC dose 30 mg/kg), 90%. In the series with C3 protein (setting [2]), the “duration of serum C3 protein reduction” value was “sustained out to day 67”.
